Data reported in patent US4605744A, “Imidazole derivatives” (Hoffmann-La Roche Inc., priority 1985, dated 1986).
Like-named read-outs stand apart in the source and are kept apart here.

Tests used:
E. coli BC5524 = experiment: In vivo activity alone and in combination (PD50, FIC)
Protocol: (§1) In Tables 9-14, the results of the in vivo activity against certain microorganisms of compounds I, M and N as given. […] The results in these Tables and the PD50 's were determined by the procedure set forth on page 160 in Beskid et al., Antimicrobial Agents and Chemotherapy, Vol. 20, No. 2 pp. 159-167 (Aug. 1981) for "in vivo studies".
(§2) In the Tables, the fractional inhibitory concentration index (FIC) for synergistic combination of a compound of this invention (X) with known antibiotic compound (Y) is determined by the following formula:
(§3) FIC=(PD50 (X combination)/PD50 (X alone)+(PD50 (Y
(§4) combination)/PD50 (Y alone)
(§5) An FIC of ≤0.60 is indicative of synergy. The synergy rating in the Tables is as follows:
(§6) In the combination, the parts are parts by weight, i.e. 10 to 1 is 10 parts by weight to 1 part by weight.

E. cloacae 4633 = experiment: as above; conditions: Enterobacter cloacae, 4633, sc, read-out: PD50 (alone)
Protocol: as §1, §2, §3, §4, §5, §6

P. aeruginosa 6148B = experiment: In vivo antibacterial activity (PD50); conditions: Pseudomonas aeruginosa, sc
P. aeruginosa 8710 = experiment: In vivo antibacterial activity (PD50); conditions: Pseudomonas aeruginosa, 8710, sc
P. aeruginosa 6799 = experiment: In vivo antibacterial activity (PD50); conditions: Pseudomonas aeruginosa, 6799, sc, read-out: PD50
C. freundii 8ASM = experiment: In vivo antibacterial activity (PD50); conditions: Citrobacter freundii, sc, challenge 1000 LD50s, 1 treatment, Table 11
K. pneumoniae HE7 = experiment: In vivo antibacterial activity (PD50); conditions: Klebsiella pneumoniae, HE7, sc, 2 treatments
S. marcescens SM = experiment: In vivo antibacterial activity (PD50); conditions: Serratia marcescens; sc; challenge 489 LD50s; 2 treatments; Table 11
S. aureus Smith = experiment: In vivo antibacterial activity (PD50); conditions: Staphylococcus aureus, sc, challenge 70 LD50s, 2 treatments, Table 11
P. mirabilis 190 = experiment: In vivo antibacterial activity (PD50); conditions: Proteus mirabilis, sc, challenge 10^4 LD50s, 1 treatment, Table 11
E. coli 387-1 = experiment: In vivo antibacterial activity (PD50); conditions: Escherichia coli, 3871; sc; challenge 127 LD50s; 1 treatment; Table 11
S. pyogenes 4 = experiment: In vivo antibacterial activity (PD50); conditions: Streptococcus pyogenes, 4, sc, sc, 2 treatments, read-out: PD50
P. aeruginosa 6719 = experiment: In vivo antibacterial activity (PD50); conditions: Pseudomonas aeruginosa, 6719, sc
S. pneumoniae 6302 = experiment: In vivo antibacterial activity (PD50); conditions: Streptococcus pneumoniae, 6302, sc, challenge 1000 LD50s, 1 treatment, Table 11
P. vulgaris 100 = experiment: In vivo antibacterial activity (PD50); conditions: Proteus vulgaris; sc; challenge 100 LD50s; 1 treatment; Table 11
K. pneumoniae 8357 = experiment: animal or person; type: in vivo; conditions: Klebsiella pneumoniae, 8357, sc, read-out: PD50
S. faecalis C1 = experiment: In vivo antibacterial activity (PD50); conditions: Enterococcus faecalis, C1; sc; challenge 10 LD50s; 1 treatment; Table 11
E. coli 5152 = experiment: In vivo antibacterial activity (PD50); conditions: Escherichia coli, 5152, sc, 2 treatments
E. cloacae 6951 = experiment: In vivo antibacterial activity (PD50); conditions: Enterobacter cloacae, 6951, sc, 2 treatments
E. aerogenes 8 = experiment: In vivo antibacterial activity (PD50); conditions: Klebsiella aerogenes, 8, sc, read-out: PD50, sc, 2 treatments
P. aeruginosa 503-56 = experiment: In vivo antibacterial activity (PD50); conditions: Pseudomonas aeruginosa, 50356, sc, challenge 50 LD50s, 2 treatments, Table 11
P. aeruginosa 6720 = experiment: In vivo antibacterial activity (PD50); conditions: Pseudomonas aeruginosa, 6720, sc, 2 treatments
S. marcescens S3 = experiment: In vivo antibacterial activity (PD50); conditions: Serratia marcescens, S3; sc; challenge 32 LD50s; 2 treatments; Table 11; read-out: PD50
S. schottmuelleri = experiment: In vivo antibacterial activity (PD50); conditions: sc; challenge 163 LD50s; 1 treatment; Table 11
Protocol: as §1

E. cloacae 214 = experiment: In vivo antibacterial activity (PD50); conditions: Enterobacter cloacae, sc, challenge 3.8 LD50s, 2 treatments, Table 11
Protocol: as §1

E. coli 257 = experiment: In vivo antibacterial activity (PD50); conditions: Escherichia coli, 257, sc, challenge >10^4 LD50s, 1 treatment
K. pneumoniae 503-990A = experiment: In vivo activity alone and in combination (PD50, FIC); conditions: sc; for ED50: Klebsiella pneumoniae, 503990A, alone
Protocol: as §1, §2, §3, §4, §5, §6

E. coli 736 = experiment: as above; conditions: Escherichia coli, sc, alone
Protocol: as §1, §2, §3, §4, §5, §6

`CC(=O)OCC1=C(C(=O)O)N2C(=O)[C@@H](NC(=O)Cc3cccs3)[C@H]2SC1` [Cephalothin, cephalothin, reference compound] was tested, and the ED50 (E. coli BC5524; Escherichia coli, BC5524, sc, read-out: PD50 (alone), sc) was < 250 mg/kg, the “PD50 (alone)” value (E. coli BC5524; sc) was > 250 mg/kg and the ED50 (E. cloacae 4633) was > 250 mg/kg.
In the case of `CO/N=C(\C(=O)N[C@@H]1C(=O)N2C(C(=O)O)=C(CSc3nc(=O)c(=O)[nH]n3C)CS[C@H]12)c1csc(N)n1` [Ceftriaxone, ceftriaxone], the ED50 (P. aeruginosa 6148B; challenge 4.5 LD50s, 3 treatments, Table 10) is reported as < 5 mg/kg, the ED50 (P. aeruginosa 6148B; challenge 32 LD50s, 2 treatments, Table 11) is reported as 62 mg/kg and the ED50 (P. aeruginosa 6148B; challenge 33 LD50s, 3 treatments, Table 10) is reported as 8 mg/kg. The ED50 (P. aeruginosa 8710; alone, challenge 1738 LD50s, Table 13, read-out: PD50 (alone)) was 41 mg/kg, the ED50 (P. aeruginosa 8710; challenge >10^4 LD50s, 2 treatments, Table 11, read-out: PD50) was 31 mg/kg and the ED50 (P. aeruginosa 6799) was < 10 mg/kg. The ED50 (P. aeruginosa 6799; sc, challenge 71 LD50s, 2 treatments, Table 11) was 16 mg/kg, the ED50 (C. freundii 8ASM) was 0.15 mg/kg and the ED50 (K. pneumoniae HE7; challenge 750 LD50s, Table 10) was < 1 mg/kg. The ED50 (K. pneumoniae HE7; challenge 1000 LD50s, Table 11) was 0.39 mg/kg, the ED50 (S. marcescens SM) was < 2 mg/kg and the ED50 (S. aureus Smith) was 3.2 mg/kg. For the same compound, the ED50 (P. mirabilis 190) was 0.007 mg/kg, the ED50 (E. coli 387-1) was 0.09 mg/kg and the ED50 (S. pyogenes 4; challenge 3.3 LD50s, Table 11) was < 2 mg/kg. For the same compound, the ED50 (S. pyogenes 4; challenge 100 LD50s, Table 10) was > 2 mg/kg, the ED50 (P. aeruginosa 6719; challenge 2249 LD50s, 3 treatments, Table 10) was 18 mg/kg and the ED50 (P. aeruginosa 6719; challenge 2290 LD50s, 2 treatments, Table 11) was 15 mg/kg. The ED50 (S. pneumoniae 6302) was 0.22 mg/kg, the ED50 (P. vulgaris 100) was 0.05 mg/kg and the ED50 (K. pneumoniae 8357) was 0.03 mg/kg. The ED50 (S. faecalis C1) was 50 mg/kg, the ED50 (E. coli 5152; challenge 2717 LD50s, Table 10) was < 5 mg/kg and the ED50 (E. coli 5152; challenge 4780 LD50s, Table 11) was < 2 mg/kg. The ED50 (E. cloacae 6951; challenge 562 LD50s, Table 10) was < 1 mg/kg, the ED50 (E. cloacae 6951; challenge 3162 LD50s, Table 11) was 0.03 mg/kg and the ED50 (E. aerogenes 8; challenge 10 LD50s, Table 11) was 6.9 mg/kg. The ED50 (E. aerogenes 8; challenge 24 LD50s, Table 10) was 6.8 mg/kg, the ED50 (P. aeruginosa 503-56) was > 250 mg/kg and the ED50 (P. aeruginosa 6720; challenge 35 LD50s, Table 11) was 15 mg/kg. The ED50 (P. aeruginosa 6720; challenge 3511 LD50s, Table 10) was 14 mg/kg, the ED50 (S. marcescens S3) was 0.03 mg/kg and the ED50 (S. schottmuelleri) was < 0.5 mg/kg. The ED50 (E. cloacae 214) was < 10 mg/kg, the ED50 (E. coli 257; Table 10) was < 1 mg/kg and the ED50 (E. coli 257; Table 11) was < 1 mg/kg.
`CC1(C)S[C@@H]2[C@H](NC(=O)[C@H](N)c3ccccc3)C(=O)N2[C@H]1C(=O)O` [Ampicillin, ampicillin, reference compound] showed an ED50 (K. pneumoniae 503-990A) of 29 mg/kg, an ED50 (K. pneumoniae 503-990A; Table 14 line (1)) of 58 mg/kg and an ED50 (K. pneumoniae 503-990A; Table 14 line (2)) of 10 mg/kg. For the same compound, the “PD50 (alone)” value (K. pneumoniae 503-990A) was 16 mg/kg and the ED50 (E. coli 736) was 5 mg/kg.
